Where two headings read alike, the source gives them in different places.
Tests used:
MES-induced seizure [1] = experiment: Maximal Electroshock Seizure (MES) test in mice, intraperitoneal administration; assay type: in vivo
Source text: (§1) The Maximal Electroshock Seizure (MES) or Maximal Seizure Pattern Test
(§2) The MES is an experimental model for generalized tonic-clonic seizures that identifies compounds that prevent seizure spread. The MES model is highly reproducible and has a consistent endpoint. An advantage of this model is that the behavioral and electrographic seizures are consistent with those observed in humans.
(§3) In the MES test, the animal receives an electrical stimulus, 0.2 seconds in duration, via corneal electrodes primed with an electrolyte solution containing an anesthetic agent. The 0.2 second stimulation is generated with 150 mA in rats and 50 mA in mice at 60 Hz. […] In rats, the compound is administered orally, while mice receive the agent via intraperitoneal injection. The test endpoint, electrogenic seizure, is manifested as hindlimb tonic extension.

MES-induced seizure [2] = experiment: Maximal Electroshock Seizure (MES) test in rats, oral administration; assay type: in vivo; settings: for Percentage of rats in which the test compound prevented MES-induced seizure: 30 mg/kg oral; for ED50: read-out: ED50 required to inhibit MES-induced seizure; for Time to Peak Effect: MES test
Source text: as §1, §2, §3
A full dose-response curve was also generated in rats to determine the ED50 value (n=8 at each time point). […] The ED50 of 4,4′-thiodianiline was evaluated in both rats and mice.

6 Hz seizures = experiment: 6 Hz kindling model; assay type: in vivo, mice
Procedure: The 6 Hz kindling model is another experimental seizure model that effectively detects compounds with anti-seizure activity. This screen is used to evaluate the ability of a compound to prevent the acquisition of focal seizures; in particular, the capacity of a compound to prevent the development of seizures induced by a low-frequency (6 Hz), long duration (three seconds) stimulus in electrode […] is evaluated. Several of the most promising compounds were evaluated in this screen to further characterize their anti-seizure activity.
In the 6 Hz kindling test, mice are implanted with corneal electrodes. The test compound is administered (i.p.) to the animal at 0.25, 0.5, 1, 2, or 4 hours prior seizure induction. The seizure is initiated by delivering a current (32 mA at 6 Hz for three seconds) to the animal through the corneal electrodes. The resulting psychomotor seizure is usually characterized by a minimal clonic phase followed by stereotyped, automatistic behaviors. This response is analogous to the aura of human patients with partial seizures.

rats = experiment: Minimal neurotoxicity in rats, positional sense and gait and stance tests; assay type: in vivo; settings: for toxicity: 250 mg/kg
Source text: If the rat experiences neurological toxicity, it will not be able to quickly lift its leg quickly back to a normal position.
In the gait and stance test, neurotoxicity is indicated by a circular or zigzag gait after administration of the test compound. In addition, ataxia, abnormal spread of the legs, abnormal posture, tremor hyperactivity, lack of exploratory behavior, somnolence, stupor, or catalepsy can indicate neurotoxicity.

mice = experiment: Minimal neurotoxicity in mice, rotorod test; settings: for toxicity: 100 mg/kg
Procedure: In mice, the test compound is administered at doses of 30, and 100 mg/kg prior to evaluation in the toxicity screens. The mice are tested at 0.5 hours and 4 hours after intraperitoneal administration of the test compound.
Toxicity in mice weighing between 18 and 25.5 g is assessed using the standardized rotorod test [9]. For each compound tested, a minimum of 18 animals are evaluated for neurotoxicity. Control mice can maintain their equilibrium for an extended period of time when they are placed on a 6-rpm rotation rod. Neurologically impaired animals cannot maintain equilibrium for one minute in each of three successive trials.

[3] = test system: focal seizures in hippocampal kindled rats; experiment: Hippocampal kindling model; assay type: in vivo, Sprague-Dawley rats; settings: hippocampal kindling model; not as effective as 4,4′-thiodianiline
Source text: Hippocampal Kindling Model
The hippocampal kindling model is an experimental seizure model used to simulate focal seizures. This model evaluates the capacity of a compound to affect both the expression and acquisition of focal seizures. In addition, kindled seizures provide a methodology for studying complex brain networks that may contribute to the spread and generalizations of seizures from a focus. The hippocampal kindling model has the advantage of being one of the only kindling models that can evaluate the temporal effects of an agent in a single animal. For this assessment, bipolar electrodes are surgically implanted in the ventral hippocampus of adult male Sprague-Dawley rats (275-300 g) under ketamine-xylazine anesthesia. Following a one-week recovery period, stage five behavioral seizures are induced by stimulating the rat 12 times per day with 50 Hz, 10 s train of 1 ms biphasic 200 μA pulses delivered every 30 min for six hours on alternating days. After five stimulus days, the animal has had 60 stimulations. A drug free control period with supramaximal stimulations is used to verify the stability of a stage five generalized seizure before the anticonvulsant activity of a drug is measured.
This screen is used to measure the capacity of the drug to prevent the expression of focal seizures. […] The animal is exposed to an initial stimulation of 20 μA; the stimulation is increased in 10 μA increments every one-two minutes until an afterdischarge is recorded. After the stability of the stage five seizure is established, the drug candidate is administered to the rats via intraperitoneal injection 15 minutes after the last control stimulation. Starting with the first dose, the anticonvulsant activity of the test agent is measured every thirty minutes for four hours. Following each stimulation, Racine seizure scores and afterdischarge durations are compared to control values to quantify the anti-convulsant activity of the agent. The Racine seizure scores vary from stage 1 to 5. The stages are characterized according to the following criteria: Stage 1—mouth and facial clonus, Stage 2—stage 1 and head nodding, Stage 3—stage 2 and forelimb clonus, Stage 4—stage 3 and rearing, Stage 5—stage 4 and repeated rearing and falling. Since a single animal is used, each rat serves as its own control.
4,4′-Thiodianiline was used in the rat hippocampal kindled rats to screen to measure its anticonvulsant potential. Doses of 12.5, 25, 50 and 100 mg/kg were evaluated at a minimum of seven time points (n=7 for each dose and each time point). […] After oral administration of the test compound stimulation, the Racine seizure scores and afterdischarge durations were measured and are shown below. The Racine seizure scores dropped from between a stage 4 and stage 5 seizure for control measurements to between a stage 1 and stage 2 seizure after treatment with 4,4′-thiodianiline.

[4] = 30 mg/kg i.p., 0.5 h after administration
[5] = 30 mg/kg i.p., 4.0 h after administration
[6] = 100 mg/kg i.p., 0.5 h after administration
[7] = 100 mg/kg i.p., 4.0 h after administration
[8] = 300 mg/kg i.p., 0.5 h after administration
[9] = 300 mg/kg i.p., 4.0 h after administration
[10] = 30 mg/kg i.p., 0.25 h after administration
[11] = 30 mg/kg i.p., 1.0 h after administration
[12] = 100 mg/kg i.p., 0.25 h after administration
[13] = 100 mg/kg i.p., 1.0 h after administration
[14] = 100 mg/kg i.p., 2.0 h after administration
[15] = rat, oral administration, at the time of peak effect, n=8

Row | SMILES | Percentage of mice in which the test compound prevented MES-induced seizure (MES-induced seizure [1]; [4]) [%] | Percentage of mice in which the test compound prevented MES-induced seizure (MES-induced seizure [1]; [5]) [%] | Percentage of mice in which the test compound prevented MES-induced seizure (MES-induced seizure [1]; [6]) [%] | Percentage of mice in which the test compound prevented MES-induced seizure (MES-induced seizure [1]; [7]) [%] | Percentage of mice in which the test compound prevented MES-induced seizure (MES-induced seizure [1]; [8]) [%] | Percentage of mice in which the test compound prevented MES-induced seizure (MES-induced seizure [1]; [9]) [%] | Percentage of rats in which the test compound prevented MES-induced seizure (MES-induced seizure [2]; 0.25 h after administration) [%] | Percentage of rats in which the test compound prevented MES-induced seizure (MES-induced seizure [2]; 0.5 h after administration) [%] | Percentage of rats in which the test compound prevented MES-induced seizure (MES-induced seizure [2]; 1.0 h after administration) [%] | Percentage of rats in which the test compound prevented MES-induced seizure (MES-induced seizure [2]; 2.0 h after administration) [%] | Percentage of rats in which the test compound prevented MES-induced seizure (MES-induced seizure [2]; 4.0 h after administration) [%] | Time to Peak Effect (MES-induced seizure [2]; rat, oral administration) [h] | Percentage of mice in which the test compound prevented seizure in the 6 Hz test (6 Hz seizures; [10]) [%] | Percentage of mice in which the test compound prevented seizure in the 6 Hz test (6 Hz seizures; [4]) [%] | Percentage of mice in which the test compound prevented seizure in the 6 Hz test (6 Hz seizures; [11]) [%] | Percentage of mice in which the test compound prevented seizure in the 6 Hz test (6 Hz seizures; [12]) [%] | Percentage of mice in which the test compound prevented seizure in the 6 Hz test (6 Hz seizures; [6]) [%] | Percentage of mice in which the test compound prevented seizure in the 6 Hz test (6 Hz seizures; [13]) [%] | Percentage of mice in which the test compound prevented seizure in the 6 Hz test (6 Hz seizures; [14]) [%] | Percentage of mice in which the test compound prevented seizure in the 6 Hz test (6 Hz seizures; [7]) [%] | other results
1 | Nc1ccc(Cc2ccc(N)cc2)cc1 [4,4′-methylenedianiline] | 0 | 0 | 100 | 0 | 100 | 100 | 100 | 75 | 92 | 100 | 50 | 1 | 0 | 0 | 0 | 100 | 100 | 100 | 0 | 0 | ED50 (MES-induced seizure [2]; Rattus norvegicus, po): 10.6 ± 5.88 mg/kg; toxicity (rats): no significant toxicity; toxicity (mice): no significant toxicity
2 | Nc1ccc(Nc2cccc(N)c2)cc1 [(3-aminophenyl)-(4-aminophenyl) amine] | 0 | 0 | 100 | 100 | 100 | 100 | 0 | 50 | 75 | 50 | 50 | 2 |  |  |  |  |  |  |  |  | ED50 (MES-induced seizure [2]; [15]): 31.7 ± 24.4 mg/kg; toxicity (rats): no significant toxicity; toxicity (mice): no significant toxicity
3 | Nc1ccc(C(=O)c2ccc(N)cc2)cc1 [4,4′-diaminobenzophenone] | 0 | 0 | 100 | 100 | 100 | 100 | 50 | 100 | 75 | 100 | 75 | 1 | 0 | 0 | 0 | 100 | 100 | 100 | 0 | 0 | ED50 (MES-induced seizure [2]; [15]): 7.15 mg/kg; acute neurotoxic effects (rats; 0.25 to 24 hours after oral administration, doses as high as 500 mg/kg): None of the rats tested at any timepoints; neurotoxicity (mice; doses below 100 mg/kg): showed no neurotoxicity
4 | Nc1ccc(NC(=O)c2ccc(N)cc2)cc1 [4,4′-Diaminobenzanalide] |  |  |  |  |  |  |  |  |  |  |  |  |  |  |  |  |  |  |  |  | expression of fully kindled seizures [3]: had the capacity to block the expression of fully kindled seizures

— US7226949B2, “Compounds of use in the treatment of epilepsy, seizure, and electroconvulsive disorders” (University of Kentucky, priority 2002, dated 2007)
